“And” between values parts separate entries of the source, which are not always exact repeats. Equal entries are not always repeated. “Also recorded” adds a separate entry of the source. Where two headings read alike, the source gives them in different places.
Key:
[1] = tested on: human colorectal cancer cells (HT 29); conditions: B-Live/Dead cell analysis; paclitaxel 32 nM, 24 h, without or with nanofibre 4 μg/ml
Experimental: (§1) Live-Dead cell analysis: Cells were grown as confluent and subconfluent monolayers for 24 h as described previously (Hakimuddin et al., 2004). Cells were treated with paclitaxel, or paclitaxel along with nanofibers for 12 h (Appropriate amounts of paclitaxel and nanofibers were mixed in 5% DMSO in water, and added to the cells). Cells were washed with phosphate buffer and cell viability tests performed on CRL 1790, CRL 2158 and HT 29 cells using a live/dead cell viability kit (Invitrogen, Mississauga, Ontario) as described by the manufacturer. Live dead cells were visualized under a confocal microscope. The assay kit contains two fluorescent dyes, calcein AM ester (Ex 494 nm, Em 517 nm) which specifically enters live cells, gets de-esterified and stains the live cells green. The dying cells as well as dead cells are membrane compromised (leaky plasma membrane) and allows the entry of ethidium homodimer Ex 517 nm/Em 617), which stains the nucleus red.
(§2) Differentiating cytotoxicity by Live-Dead cell analysis: Further studies were performed to investigate delivery of paclitaxel using nanofibres into various cell lines. To further evaluate the efficiency of nanofibres in enhancing cytotoxicity of paclitaxel, live-dead cell analysis was conducted. Normal cells (CRL 1790), cancer cells (HT-29) and the MDR cells (CRL 2158) were cultured and exposed to paclitaxel alone, and paclitaxel along with nanofibres. The cells were cultured for 24 h at which time point, paclitaxel and the nanofibres were added to the culture. Live dead cell analysis was performed 24 h after exposure to the drug. […] The assay kit (Invitrogen) contains two fluorescent dyes, calcein AM ester (Ex 494 nm, Em 517 nm) which specifically enters live cells, gets de-esterified and stains the live cells green. The dying cells as well as dead cells are membrane compromised (leaky plasma membrane) and allows the entry of ethidium homodimer (Ex 517 nm/Em 617), which stains the nucleus red. […] Panels B, C represent control cells visualized at 617 nm (red, dead cells) and at 517 nm (green, live cells), respectively. Panel A is a composite image of untreated cells. Panels E, F represent the images of cells treated with paclitaxel (32 nM) recorded at the two wavelengths 617 and 517 nm respectively. Panel D is a composite image. Panels H and I show the cells treated with paclitaxel+nanofibres (32 nM+4 μg/ml nanofibers, the fibers and appropriate amount of paclitaxel were mixed in 5% DMSO and added to the culture medium of cells and allowed to incubate for 12 h). Panel G is a composite of the red and green images.

[2] = tested on: Human colorectal MDR cancer Cells (CRL 2158); conditions: B-Live/Dead cell analysis, paclitaxel 32 nM, 24 h, without or with nanofibre 4 μg/ml
Experimental: as §1, §2

[3] = tested on: Normal Human Intestinal Cells (CRL 1790); conditions: B-Live/Dead cell analysis; paclitaxel 32 nM, 24 h, without or with nanofibre 4 μg/ml
Experimental: as §1, §2

[4] = tested on: normal human colonic epithelial cells (CRL 1790)
Experimental: (§3) Cell culture: Three cell lines derived from colon, CRL 1790, a normal cell line, HT 29, a colorectal cancer cell line and CRL 2158 a multidrug resistant colorectal cancer cell line (ATCC) were used to evaluate the cytotoxicity of nanocomplexes. Cells were cultured in media specifically recommended for each cell line. For HT 29, the medium used was DMEM (Dulbecco's modified Eagle's medium, Sigma), for CRL 2158, the medium used was RPMI, and for CRL 1790, the medium used was EMEM (Eagle's minimum essential medium; Cedarlane Labs, Burlington, ON, Canada). All the media were supplemented with FBS, Penicillin/streptomycin, and L-glutamine. At confluency (˜80%), cells were washed with 1×PBS twice. Cells were incubated with trypsin-EDTA for 5 minutes and then diluted in respective media supplemented with 10% FBS before staining with trypan blue (50 μl of cells and 450 μl of trypan blue) and counting viable cells to evaluate cytotoxicity. The cytotoxicity was determined by trypan blue exclusion by living cells and blue staining of dead cells. The number of dead cells in a unit area was counted and expressed as a percentage of total cells in the area.
(§4) Cytotoxicity of nanoparticles and nanofibres against cancer cells: These studies evaluate the cytotoxic effects of the purified nanoparticles and the nanofibres isolated from sour cherry using normal human colonic epithelial cells (CRL 1790), human colorectal cancer cells (HT 29) and multidrug resistant human colorectal cancer cells (CRL 2158) in the presence or absence of paclitaxel. Nanoparticles were added as polyphenol equivalent aliquots, while the nanofibres were added on a weight basis. […]

[5] = tested on: human colorectal cancer cells (HT 29)
Experimental: as §3, §4

[6] = tested on: multidrug resistant human colorectal cancer cells (CRL 2158)
Experimental: as §3, §4

[7] = DPPH radical scavenging capacity of food powder; assay type: biochemical; conditions: positive control at the same concentrations as polyphenols
Experimental: The powder was dissolved in water and the antioxidant capacity of the solution was determined by estimating the DPPH Radical scavenging capacity of solution as polyphenol equivalent (estimated by Folin-Ciocalteau reagent) in micrograms. A 0.1 mM Folin-Ciocateau reagent was prepared in methanol, and the food powder solution was added in the specified amounts. The antioxidants were allowed to react with 1 ml of DPPH reagent, and the absorbance (purple, 517 nm absorption) was monitored. The decline in 517 nm absorbance was noted and expressed as % quenching in comparison to a control without polyphenol. […] Each point at a concentration represents an individual sample of food powder prepared;
The powder was dissolved in water and the antioxidant capacity of the solution was determined by estimating the DPPH Radical scavenging capacity of solution as polyphenol equivalent (estmated by Folin-Ciocalteau reagent) in micrograms. A 0.1 mM Folin-Ciocateau reagent was prepared in methanol, and the food powder solution was added in the specified amounts. The antioxidants were allowed to react with 1 ml of DPPH reagent, and the absorbance (purple, 517 nm absorption) was monitored. The decline in 517 nm absorbance was noted and expressed as % quenching in comparison to a control without polyphenol. […] Each point at a concentration represents an individual sample of food powder prepared.

[8] = tested on: normal human intestinal CRL 1790 cells; test: Uptake of calcein and calcein-loaded nanofibres, confocal microscopy; assay type: cell-based
Experimental: (§5) Calcein uptake into HT 29, CRL 1790 cells: Uptake of calcein-loaded nanoparticles into mammalian cells. Calcein by itself is impermeable through membrane, and may be taken up at a low level by endocytosis. Ethanol-bleached cherry was homogenized in water, also containing 1 mg/g fresh weight equivalent of calcein, and the supernatant dialyzed against water. Calcein complexed to nanofilaments is retained within the dialysis bag, and used for uptake measurements by confocal microscopy.
(§6) Uptake of complexed molecules by nanofibres: Nanofibres are extremely long (micrometers in length, ˜5 nm in diameter; see FIG. 37, for example), and their ability to cross the plasma membrane was investigated. In this experiment, the ability of nanofibres to form natural complexes with a membrane impermeable fluorescent dye, calcein, was investigated. Nanofibres where prepared from ethanol-bleached cherry by procedures described herein above. […] HT-29 and CRL-1790 cells were incubated in the presence of calcein alone, and calcein-complexed nanofibres (of equal fluorescence intensity). Uptake of calcein and calcein complexed with nanofibres were monitored by confocal microscopy. […] Similar experiments were also conducted with nanoparticles, however, because of quenching of fluorescence by polyphenols, successful acquisition of images was not achieved.

[9] = tested on: HT 29 cells; test: as above; assay type: cell-based, human
Experimental: as §5, §6

CC(=O)O[C@H]1C(=O)[C@@]2(C)[C@H]([C@H](OC(=O)c3ccccc3)[C@]3(O)C[C@H](OC(=O)[C@H](O)[C@@H](NC(=O)c4ccccc4)c4ccccc4)C(C)=C1C3(C)C)[C@]1(OC(C)=O)CO[C@@H]1C[C@@H]2O [Paclitaxel]
% Living cells Colorectal Cancer Cell Line HT 29 [1]: 10.78%
% Living cells Colorectal MDR cell line CRL 2158 [2]: 46.00%
% Living cells Colorectal MDR cell line CRL 2158 ([2]; listed as paclitaxel): ~50%
% Living cells Normal Cell Line CRL 1790 [3]: 97.6%
% Living cells Normal Cell Line CRL 1790 ([4]; Paclitaxel 2 nM): 86.66%
% Living cells Normal Cell Line CRL 1790 ([4]; Paclitaxel 8 nM): 74.28%
% Living cells Normal Cell Line CRL 1790 ([4]; Paclitaxel 32 nM): 66.79%
% Living cells Colorectal Cancer Cell Line HT 29 ([5]; Paclitaxel 2 nM): 70.93%
% Living cells Colorectal Cancer Cell Line HT 29 ([5]; Paclitaxel 8 nM): 59.11%
% Living cells Colorectal Cancer Cell Line HT 29 ([5]; Paclitaxel 32 nM): 50% and 48.27%
% Living cells Colorectal MDR cell line CRL 2158 ([6]; Paclitaxel 2 nM): 90.86%
% Living cells Colorectal MDR cell line CRL 2158 ([6]; Paclitaxel 8 nM): 86.17%
% Living cells Colorectal MDR cell line CRL 2158 ([6]; Paclitaxel 32 nM): 83.76%

Cc1c(C)c2c(c(C)c1O)CCC(C)(C(=O)O)O2 (stereo not shown) [Trolox]
TEAC value [7]: 1

O=C(O)CN(CC(=O)O)Cc1cc2c(cc1O)Oc1cc(O)c(CN(CC(=O)O)CC(=O)O)cc1C21OC(=O)c2ccccc21 [Calcein]
uptake into cells (in words) [8]: comparatively very low
uptake into cells (in words) [9]: comparatively very low; also recorded: Far reduced uptake

Source: patent US12180612B2, “Plant tissue-derived nanofibres” (priority 2018, dated 2024)
